Here are results for nine molecules from ChEMBL document CHEMBL4689842, “EUbOPEN Chemogenomics Library wave 1” (2021).

Common to all, as to type: toxicity, cell-based
One data set has as its system HEK-293T. Briefly: Incucyte cell viability with HEK293T. Particulars: human, 10 µM, compound concentration 10 uM.
A further data set deals with Fibroblast. The data set can be described thus: Incucyte cell viability with human fibroblast. Particulars: 10 µM, compound concentration 10 uM.
Another data set concerns U2OS. The data set can be described thus: Incucyte cell viability with U2OS. Particulars: human, 10 µM, compound concentration 10 uM.
The mark [1] stands for this setting: 0 h, replicate number 1, timepoint 0 hours.
[2] abbreviates: 0 h, replicate number 2, timepoint 0 hours.
The mark [3] stands for this setting: 6 h, replicate number 1, timepoint 6 hours.
Where [4] appears, read: 12 h, replicate number 1, timepoint 12 hours.
The mark [5] stands for this setting: 12 h, replicate number 2, timepoint 12 hours.
[6] abbreviates: 18 h, replicate number 1, timepoint 18 hours.
The mark [7] stands for this setting: 24 h, replicate number 1, timepoint 24 hours.
Where [8] appears, read: 24 h, replicate number 2, timepoint 24 hours.
Setting [9] is: 6 h, replicate number 2, timepoint 6 hours.
Setting [10] is: 18 h, replicate number 2, timepoint 18 hours.
Note: filed as whole numbers so only -1 and 0 and 1 occur.

For `CC(C)(C)OC(=O)N1CCCC1CNC1CCC(c2cc(F)ccc2F)(S(=O)(=O)c2ccc(Cl)cc2)CC1` (stereo not given) [GSI-NC], the “Growth Rate” value with HEK-293T (setting [1]) came to 0; with HEK-293T (setting [2]), 1; in the data set with HEK-293T (setting [3]), 0; in the data set with HEK-293T (setting [4]), 1; in the data set on HEK-293T (setting [5]), 0; in the data set with HEK-293T (setting [6]), 1. Further, the “Growth Rate” value with HEK-293T (setting [7]) turned out to be 1; in the data set on HEK-293T (setting [8]), 0; with Fibroblast (setting [2]), 0; in the data set on Fibroblast (setting [3]), 0; in the data set with Fibroblast (setting [9]) it was 1; in the data set with Fibroblast (setting [4]), 0. Besides, the “Growth Rate” value in the data set on Fibroblast (setting [6]), in the data set with Fibroblast (setting [7]), in the data set on U2OS (setting [1]), with U2OS (setting [3]), with U2OS (setting [4]) and with U2OS (setting [6]) was 0 throughout. The “Growth Rate” value with U2OS (setting [7]) is given as 0.
As for `CC(C)(Sc1ccc(CCN(CCCCC2CCCCC2)C(=O)NC2CCCCC2)cc1)C(=O)O` [GW7647], the “Growth Rate” value in the data set with HEK-293T (setting [1]) was 1; in the data set on HEK-293T (setting [2]), 0; in the data set on HEK-293T (setting [3]), 0; with HEK-293T (setting [9]), 1; in the data set on HEK-293T (setting [4]) it was 0; in the data set on HEK-293T (setting [5]) it was 1. In addition, the “Growth Rate” value in the data set on HEK-293T (setting [6]) was 0; in the data set on HEK-293T (setting [10]), 1; with HEK-293T (setting [7]), 0; in the data set on Fibroblast (setting [1]), 0; with Fibroblast (setting [3]) it was 0; in the data set with Fibroblast (setting [4]) it was 0. In addition, the “Growth Rate” value with Fibroblast (setting [6]) is 1; with Fibroblast (setting [7]), 0; in the data set on Fibroblast (setting [8]), 1; in the data set on U2OS (setting [1]) it was 0; with U2OS (setting [9]), 1; with U2OS (setting [4]) it was 1. In addition, the “Growth Rate” value with U2OS (setting [6]) and in the data set on U2OS (setting [7]) was 1 in each case.
With `Cc1oncc1C(=O)Nc1ccc(C(F)(F)F)cc1` [LEFLUNOMIDE], the “Growth Rate” value came to 1 with HEK-293T (setting [1]); 0 in the data set on HEK-293T (setting [2]); 0 with HEK-293T (setting [3]); 1 in the data set on HEK-293T (setting [9]); 1 in the data set on HEK-293T (setting [4]); 1 in the data set on HEK-293T (setting [6]). For the same molecule, the “Growth Rate” value in the data set on HEK-293T (setting [10]) was 0; in the data set on HEK-293T (setting [7]) it was 0; in the data set with HEK-293T (setting [8]), 1; in the data set with Fibroblast (setting [1]), 0; with Fibroblast (setting [3]), 1; with Fibroblast (setting [9]), 0. Also, the “Growth Rate” value turned out to be 1 in the data set on Fibroblast (setting [4]); 0 in the data set on Fibroblast (setting [5]); 1 with Fibroblast (setting [6]); 0 in the data set with Fibroblast (setting [10]); 1 in the data set on Fibroblast (setting [7]); 0 in the data set on Fibroblast (setting [8]). In addition, the “Growth Rate” value is reported as 0 in the data set on U2OS (setting [2]); 1 in the data set on U2OS (setting [9]); 1 in the data set on U2OS (setting [4]); 1 with U2OS (setting [6]); 1 in the data set on U2OS (setting [7]).
With `N[C@@H](Cc1cc(I)c(Oc2ccc(O)c(I)c2)c(I)c1)C(=O)O` [LIOTHYRONINE], the “Growth Rate” value stood at 0 with HEK-293T (setting [1]); 1 in the data set with HEK-293T (setting [3]); 1 with HEK-293T (setting [4]); 0 in the data set on HEK-293T (setting [5]); 1 in the data set with HEK-293T (setting [6]); 0 with HEK-293T (setting [10]). The “Growth Rate” value is given as 1 with HEK-293T (setting [7]); 0 in the data set on HEK-293T (setting [8]); 0 in the data set on Fibroblast (setting [1]); 0 in the data set with Fibroblast (setting [3]); 0 in the data set on Fibroblast (setting [4]); 0 in the data set on Fibroblast (setting [6]). In addition, the “Growth Rate” value with Fibroblast (setting [10]) was 1; with Fibroblast (setting [7]), 0; with Fibroblast (setting [8]), 1; in the data set on U2OS (setting [1]), 0; in the data set on U2OS (setting [9]), 1; in the data set on U2OS (setting [4]) it was 1. The “Growth Rate” value in the data set on U2OS (setting [6]) and in the data set with U2OS (setting [7]) was 1 in each case.
Regarding `O=C1O[C@]2(CC[C@H](C(=O)Nc3ccn(-c4ccccc4F)n3)CC2)c2cnccc21` [MK-0557], the “Growth Rate” value in the data set with HEK-293T (setting [1]), with HEK-293T (setting [3]), in the data set with HEK-293T (setting [4]), with HEK-293T (setting [6]), with HEK-293T (setting [7]) and in the data set with Fibroblast (setting [1]) was 0 each time. Moreover, the “Growth Rate” value is recorded as 0 in the data set on Fibroblast (setting [3]); 0 with Fibroblast (setting [4]); 1 in the data set on Fibroblast (setting [5]); 0 with Fibroblast (setting [6]); 1 in the data set on Fibroblast (setting [10]); 0 with Fibroblast (setting [7]). In addition, the “Growth Rate” value with Fibroblast (setting [8]) is recorded as 1; with U2OS (setting [2]), 0; in the data set on U2OS (setting [9]), 1; with U2OS (setting [4]), 1; with U2OS (setting [6]), 1; in the data set on U2OS (setting [7]), 0. Also, the “Growth Rate” value in the data set on U2OS (setting [8]) turned out to be 1.
On to `C[C@@H]1CN(c2cc(-c3n[nH]c4ccc(OC5(C)CC5)cc34)ncn2)C[C@H](C)O1` [MLi-2], for which the “Growth Rate” value is 0 in the data set on HEK-293T (setting [1]); 1 in the data set with HEK-293T (setting [2]); 0 with HEK-293T (setting [3]); 1 with HEK-293T (setting [4]); 1 with HEK-293T (setting [6]); 1 in the data set with HEK-293T (setting [7]). In addition, the “Growth Rate” value worked out at 0 in the data set on HEK-293T (setting [8]); 0 in the data set on Fibroblast (setting [1]); 1 in the data set on Fibroblast (setting [3]); 0 in the data set on Fibroblast (setting [9]); 1 in the data set on Fibroblast (setting [4]); 0 in the data set with Fibroblast (setting [5]). Moreover, the “Growth Rate” value with Fibroblast (setting [6]) is recorded as 1; in the data set with Fibroblast (setting [10]), 0; in the data set with Fibroblast (setting [7]), 0; with U2OS (setting [2]) it was 0; in the data set on U2OS (setting [3]), 1; in the data set on U2OS (setting [4]), 1. The “Growth Rate” value in the data set with U2OS (setting [6]) and in the data set with U2OS (setting [7]) was 1 throughout.
Take `O=S(=O)(NC1CCC(c2cc(F)ccc2F)(S(=O)(=O)c2ccc(Cl)cc2)CC1)C(F)(F)F` (stereo not given) [MRK-560]: the “Growth Rate” value was 0 with HEK-293T (setting [1]); 1 with HEK-293T (setting [2]); 1 in the data set with HEK-293T (setting [3]); 0 in the data set with HEK-293T (setting [4]); 0 in the data set on HEK-293T (setting [6]); 0 in the data set on HEK-293T (setting [7]). The “Growth Rate” value came to 0 in the data set on Fibroblast (setting [1]); 1 in the data set with Fibroblast (setting [9]); 1 in the data set on Fibroblast (setting [4]); 0 with Fibroblast (setting [5]); 1 with Fibroblast (setting [6]); 1 in the data set with Fibroblast (setting [7]). Moreover, the “Growth Rate” value in the data set on Fibroblast (setting [8]) is 0; with U2OS (setting [1]) it was 1; in the data set with U2OS (setting [3]), 1; in the data set on U2OS (setting [9]), 0; in the data set on U2OS (setting [4]), 1; with U2OS (setting [6]) it was 0. Moreover, the figures for the “Growth Rate” value in the data set with U2OS (setting [7]) and in the data set with U2OS (setting [8]) were 1 and 0, respectively.
`CC(=O)c1c(NS(C)(=O)=O)c2cc(-c3ccc(Cl)cc3)c(-c3ccc(Cl)cc3Cl)nc2n(C)c1=O` [MRL-CB1-NC]: the “Growth Rate” value in the data set on HEK-293T (setting [1]) worked out at 1; in the data set on HEK-293T (setting [2]), 0; with HEK-293T (setting [3]) it was 0; with HEK-293T (setting [4]), 0; in the data set on HEK-293T (setting [5]), 1; in the data set on HEK-293T (setting [6]), 0. Moreover, the “Growth Rate” value with HEK-293T (setting [7]), in the data set on Fibroblast (setting [1]), with Fibroblast (setting [3]), in the data set with Fibroblast (setting [4]), in the data set with Fibroblast (setting [6]) and in the data set with Fibroblast (setting [7]) was 0 throughout. In addition, the “Growth Rate” value in the data set with U2OS (setting [1]) was determined as 0; with U2OS (setting [2]), 1; in the data set on U2OS (setting [9]), 1; in the data set on U2OS (setting [4]) it was 1; in the data set with U2OS (setting [6]), 1; in the data set on U2OS (setting [7]) it was 1.
Take `Cc1ccc(-c2cnc([C@@]3(O)CC[C@H](C(=O)O)C(C)(C)C3)s2)cc1Nc1cccc(C(F)(F)F)n1` [MRL-SYKi-NC]: the “Growth Rate” value was 0 with HEK-293T (setting [1]); 1 in the data set on HEK-293T (setting [2]); 0 in the data set on HEK-293T (setting [3]); 1 in the data set on HEK-293T (setting [4]); 0 in the data set on HEK-293T (setting [5]); 1 in the data set with HEK-293T (setting [6]). Besides, the “Growth Rate” value in the data set on HEK-293T (setting [7]) was 1; in the data set on HEK-293T (setting [8]), 0; with Fibroblast (setting [2]), 0; in the data set with Fibroblast (setting [3]), 0; in the data set on Fibroblast (setting [4]) it was 0; in the data set with Fibroblast (setting [6]), 0. The “Growth Rate” value in the data set with Fibroblast (setting [7]) stood at 0; with U2OS (setting [1]) it was 0; in the data set with U2OS (setting [3]), 0; with U2OS (setting [4]), 0; in the data set with U2OS (setting [5]), 1; with U2OS (setting [6]), 0. Moreover, the “Growth Rate” value is recorded as 1 in the data set on U2OS (setting [10]), 0 in the data set on U2OS (setting [7]) and 1 with U2OS (setting [8]).
